Reference: patent US20080312207A1, “Compounds” (priority 2004, published 2008)

What was measured:
[1] = molecular target: T1, recombinant human pancreatic GLK (Homo sapiens, UniProt P35557); experiment: Enzymatic activity of GLK (G-6-P dehydrogenase coupled, NADP/NADPH, OD 340 nm); type: biochemical; conditions: read-out: activating activity for glucokinase, EC50
T1 construct: 6-His (N); made in house; host or cells: E. coli BL21
T1 sequence (P35557 1-465): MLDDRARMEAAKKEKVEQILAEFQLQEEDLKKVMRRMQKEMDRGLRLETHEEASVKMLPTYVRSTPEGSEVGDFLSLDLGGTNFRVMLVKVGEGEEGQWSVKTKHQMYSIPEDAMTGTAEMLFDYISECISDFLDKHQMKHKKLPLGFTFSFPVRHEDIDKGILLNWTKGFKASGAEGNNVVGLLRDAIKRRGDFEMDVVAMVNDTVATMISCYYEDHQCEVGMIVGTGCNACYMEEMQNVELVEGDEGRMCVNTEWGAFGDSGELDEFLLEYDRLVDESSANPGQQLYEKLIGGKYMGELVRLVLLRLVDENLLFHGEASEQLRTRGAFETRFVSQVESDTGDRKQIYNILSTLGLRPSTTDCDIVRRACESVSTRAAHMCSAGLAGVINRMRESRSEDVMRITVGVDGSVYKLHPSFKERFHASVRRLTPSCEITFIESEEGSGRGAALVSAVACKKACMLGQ

[2] = tested on: Zucker obese fa/fa rats; experiment: Oral Glucose Tolerance Test (OGTT); type: in vivo, rat; conditions: 10 mg/kg, given orally 120 minutes before glucose 2 g/kg; percent inhibition of blood glucose AUC vs vehicle
Method: The animals were fasted for 2 hours before use for experiments. A test compound or a vehicle was given orally 120 minutes before oral administration of a glucose solution at a dose of 2 g/kg body weight. Blood glucose levels were measured using a Accucheck glucometer from tail bled samples taken at different time points before and after administration of glucose (time course of 60 minutes). […] Percent inhibition is determined using the AUC in the vehicle-control group as zero percent inhibition.

[3] = Oral exposure; type: in vivo; conditions: compared with Example II107 in WO 03/015774

| SMILES | EC50 [1] | OGTT activity [2] | oral exposure [3] |
| --- | --- | --- | --- |
| CC(C)Oc1cc(Oc2ccc(S(C)(=O)=O)cc2)cc(C(=O)Nc2nccs2)c1 [Example 7c, 3-(1-methylethyl)oxy-5-[4-(methylsulfonyl)phenoxy]-N-1,3-thiazol-2-ylbenzamide] | 50 nM | 18% | superior |
| Cc1cnc(NC(=O)c2cc(OCCc3ccsc3)cc(OC(C)C)c2)s1 [Example II107 in WO 03/015774, reference compound] |  | not active |  |
